Measured values as given in US20260265265A1, “NOVEL BENZIMIDAZOLONE DERIVATIVE COMPOUND AS AUTOTAXIN INHIBITOR” (LG CHEM, LTD., priority 2023, published 2026).

Target: T1, Recombinant Human ENPP-2/Autotaxin (Homo sapiens, UniProt Q13822)
T1 construct: purchased R&D systems 5255-EN
Assay: LysoPLD activity measurement (autotaxin enzyme inhibition, choline release, TOOS reagent)
Assay type: biochemical
Details: LysoPLD inhibitory activity; substrate 14:0 LysoPC; absorbance at 555 nm
Method: Such a measurement method is a method of measuring the amount of choline, which is a reaction product in an autotaxin enzyme reaction, using a TOOS reagent. Depending on the activity of the autotaxin inhibitor, the amount of choline produced as a reaction product varies, which affects the final absorbance.
After 30 min, 14:0 LysoPC of the substrate diluted to a concentration of 300 μM with the enzyme reaction buffer solution was dispensed into each well by 50 μL and allowed to stand at 37° C. for 90 minutes. At this time, negative control wells were dispensed with 1% DMSO, substrate, and autotaxin instead of the compound, and positive control wells were dispensed with 1% DMSO and substrate.

SMILES | IC50 [nM]
O=C(O)c1cccc(Cn2c(=O)n(-c3ccc(OCC4CCC4)cc3)c3cc(Cl)ccc32)c1 [Example 27, 3-((5-chloro-3-(4-(cyclobutylmethoxy)phenyl)-2-oxo-2,3-dihydro-1H-benzo[d]imidazol-1-yl)methyl)benzoic acid] | 100 to 1000
CCCn1cc(-n2c(=O)n(Cc3cccc(C(=O)O)c3)c3ccc(Cl)c(F)c32)cn1 [Example 88, 3-((5-chloro-4-fluoro-2-oxo-3-(1-propyl-1H-pyrazol-4-yl)-2,3-dihydro-1H-benzo[d]imidazol-1-yl)methyl)benzoic acid] | 10 to 100
O=C(O)c1c(F)ccc(Cn2c(=O)n(-c3ccc(N4CCOCC4)cc3)c3cc(Cl)ccc32)c1F [Example 205, 3-((5-chloro-3-(4-morpholinophenyl)-2-oxo-2,3-dihydro-1H-benzo[d]imidazol-1-yl)methyl)-2,6-difluorobenzoic acid] | 10 to 100
O=C(O)c1cccc(C2(n3c(=O)n(-c4ccc(Cn5cnc(C(F)(F)F)c5)cc4)c4cc(Cl)ccc43)CC2)c1 [Example 237, 3-(1-(5-chloro-2-oxo-3-(4-((4-(trifluoromethyl)-1H-imidazol-1-yl)methyl)phenyl)-2,3-dihydro-1H-benzo[d]imidazol-1-yl)cyclopropyl)benzoic acid] | 10 to 100
O=C(O)c1cc(Cn2c(=O)n(-c3ccccc3)c3cc(Cl)ccc32)ccc1F [Example 35, 5-((5-chloro-2-oxo-3-phenyl-2,3-dihydro-1H-benzo[d]imidazol-1-yl)methyl)-2-fluorobenzoic acid] | 100 to 1000
O=C(O)c1cc(F)cc(Cn2c(=O)n(-c3ccccc3)c3cc(Cl)ccc32)c1 [Example 34, 3-((5-chloro-2-oxo-3-phenyl-2,3-dihydro-1H-benzo[d]imidazol-1-yl)methyl)-5-fluorobenzoic acid] | 100 to 1000
O=C(O)c1cc(Cn2c(=O)n(-c3ccc(N4CCOCC4)cc3)c3cc(Cl)ccc32)cc(F)c1F [Example 203, 5-((5-chloro-3-(4-morpholinophenyl)-2-oxo-2,3-dihydro-1H-benzo[d]imidazol-1-yl)methyl)-2,3-difluorobenzoic acid] | 10 to 100
O=C(O)c1cccc(Cn2c(=O)n(-c3ccc(N4CCC(F)(F)CC4)cc3)c3cc(Cl)ccc32)c1F [Example 118, 3-((5-chloro-3-(4-(4,4-difluoropiperidin-1-yl)phenyl)-2-oxo-2,3-dihydro-1H-benzo[d]imidazol-1-yl)methyl)-2-fluorobenzoic acid] | 10 to 100
CCC(=O)N1CCN(c2ccc(-n3c(=O)n(Cc4cccc(C(=O)O)c4F)c4ccc(Cl)cc43)cc2)CC1 [Example 141, 3-((5-chloro-2-oxo-3-(4-(4-propionylpiperazin-1-yl)phenyl)-2,3-dihydro-1H-benzo[d]imidazol-1-yl)methyl)-2-fluorobenzoic acid] | 10 to 100
CC1(C)Cc2cc(-n3c(=O)n(Cc4cccc(C(=O)O)c4)c4ccc(Cl)cc43)ccc2C1=O [Example 115, 3-((5-chloro-3-(2,2-dimethyl-1-oxo-2,3-dihydro-1H-inden-5-yl)-2-oxo-2,3-dihydro-1H-benzo[d]imidazol-1-yl)methyl)benzoic acid] | 100 to 1000
CC(C)(C)c1ccc(-n2c(=O)n(Cc3cccc(C(=O)O)c3)c3ccc(Cl)cc32)cc1 [Example 12, 3-((3-(4-(tert-butyl)phenyl)-5-chloro-2-oxo-2,3-dihydro-1H-benzo[d]imidazol-1-yl)methyl)benzoic acid] | 100 to 1000
CCC(=O)N1CCC(c2ccc(-n3c(=O)n(Cc4cccc(C(=O)O)c4)c4ccc(Cl)cc43)cc2)CC1 [Example 102, 3-((5-chloro-2-oxo-3-(4-(1-propionylpiperidin-4-yl)phenyl)-2,3-dihydro-1H-benzo[d]imidazol-1-yl)methyl)benzoic acid] | 10 to 100
O=C(O)c1cccc(Cn2c(=O)n(-c3ccc(C4CC4)cn3)c3cc(Cl)ccc32)c1 [Example 163, 3-((5-chloro-3-(5-cyclopropylpyridin-2-yl)-2-oxo-2,3-dihydro-1H-benzo[d]imidazol-1-yl)methyl)benzoic acid] | 100 to 1000
O=C(O)c1cccc(Cn2c(=O)n(-c3ccc(OCC4CC4)cc3)c3cc(Cl)ccc32)c1 [Example 42, 3-((5-chloro-3-(4-(cyclopropylmethoxy)phenyl)-2-oxo-2,3-dihydro-1H-benzo[d]imidazol-1-yl)methyl)benzoic acid] | 100 to 1000
O=C(O)c1cccc(Cn2c(=O)n(-c3ccc(N4CCN(C(=O)C5CC5)CC4)cc3)c3cc(Cl)ccc32)c1F [Example 140, 3-((5-chloro-3-(4-(4-(cyclopropanecarbonyl)piperazin-1-yl)phenyl)-2-oxo-2,3-dihydro-1H-benzo[d]imidazol-1-yl)methyl)-2-fluorobenzoic acid] | 10 to 100
CCC(=O)N1CCC(c2ccc(-n3c(=O)n(C4(c5cc(F)cc(C(=O)O)c5)CC4)c4ccc(Cl)cc43)cc2)CC1 [Example 235, 3-(1-(5-chloro-2-oxo-3-(4-(1-propionylpiperidin-4-yl)phenyl)-2,3-dihydro-1H-benzo[d]imidazol-1-yl)cyclopropyl)-5-fluorobenzoic acid] | < 10
CSc1ccc(-n2c(=O)n(Cc3cccc(C(=O)O)c3F)c3ccc(Cl)cc32)cc1 [Example 55, 3-((5-chloro-3-(4-(methylthio)phenyl)-2-oxo-2,3-dihydro-1H-benzo[d]imidazol-1-yl)methyl)-2-fluorobenzoic acid] | 10 to 100
O=C(O)c1cccc(Cn2c(=O)n(-c3cnn(CC4CC4)c3)c3cc(Cl)ccc32)c1 [Example 90, 3-((5-chloro-3-(1-cyclopropylmethyl-1H-pyrazol-4-yl)-2-oxo-2,3-dihydro-1H-benzo[d]imidazol-1-yl)methyl)benzoic acid] | 100 to 1000
CN(C)C(=O)Cc1ccc(-n2c(=O)n(C3(c4cccc(C(=O)O)c4)CC3)c3ccc(Cl)cc32)cc1 [Example 139, 3-(1-(5-chloro-3-(4-(2-(dimethylamino)-2-oxoethyl)phenyl)-2-oxo-2,3-dihydro-1H-benzo[d]imidazol-1-yl)cyclopropyl)benzoic acid] | < 10

Further lines, results first:

IC50 [nM] | SMILES
< 10 | O=C(O)c1cccc(C2(n3c(=O)n(-c4ccc(N5CCC(F)(F)C5)nc4)c4cc(Cl)ccc43)CC2)c1 [Example 165, 3-(1-(5-chloro-3-(6-(3,3-difluoropyrrolidin-1-yl)pyridin-3-yl)-2-oxo-2,3-dihydro-1H-benzo[d]imidazol-1-yl)cyclopropyl)benzoic acid]
< 10 | CN(C)C(=O)c1ccc(-n2c(=O)n(C3(c4cccc(C(=O)O)c4)CCC3)c3ccc(Cl)cc32)cc1 [Example 157, 3-(1-(5-chloro-3-(4-(dimethylcarbamoyl)phenyl)-2-oxo-2,3-dihydro-1H-benzo[d]imidazol-1-yl)cyclobutyl)benzoic acid]
< 10 | O=C(O)c1cccc(C2(n3c(=O)n(-c4ccc(N5CCOCC5)cc4)c4cc(Cl)ccc43)CC2)c1 [Example 147, 3-(1-(5-chloro-3-(4-morpholinophenyl)-2-oxo-2,3-dihydro-1H-benzo[d]imidazol-1-yl)cyclopropyl)benzoic acid]
< 10 | O=C(O)c1cccc(C2(n3c(=O)n(-c4ccc(C(=O)N5CC6(COC6)C5)cc4)c4cc(Cl)ccc43)CC2)c1F [Example 135, 3-(1-(3-(4-(2-oxa-6-azaspiro[3.3]heptane-6-carbonyl)phenyl)-5-chloro-2-oxo-2,3-dihydro-1H-benzo[d]imidazol-1-yl)cyclopropyl)-2-fluorobenzoic acid]
< 10 | C[C@H]1COCCN1C(=O)c1ccc(-n2c(=O)n(C3(c4cccc(C(=O)O)c4)CC3)c3ccc(Cl)cc32)cc1 [Example 127, (S)-3-(1-(5-chloro-3-(4-(3-methylmorpholine-4-carbonyl)phenyl)-2-oxo-2,3-dihydro-1H-benzo[d]imidazol-1-yl)cyclopropyl)benzoic acid]
< 10 | C[C@H]1COCCN1C(=O)c1ccc(-n2c(=O)n(C3(c4cccc(C(=O)O)c4F)CC3)c3ccc(Cl)cc32)cc1 [Example 136, (S)-3-(1-(5-chloro-3-(4-(3-methylmorpholine-4-carbonyl)phenyl)-2-oxo-2,3-dihydro-1H-benzo[d]imidazol-1-yl)cyclopropyl)-2-fluorobenzoic acid]
< 10 | O=C(O)c1cccc(C2(n3c(=O)n(-c4ccc(C(=O)N5CC(O)C5)cc4)c4cc(Cl)cnc43)CC2)c1 [Example 224, 3-(1-(6-chloro-1-(4-(3-hydroxyazetidine-1-carbonyl)phenyl)-2-oxo-1,2-dihydro-3H-imidazo[4,5-b]pyridin-3-yl)cyclopropyl)benzoic acid]
< 10 | O=C(O)c1cccc(C2(n3c(=O)n(-c4ccc(N5CC(F)(F)C5)cc4)c4cc(Cl)ccc43)CC2)c1 [Example 185, 3-(1-(5-chloro-3-(4-(3,3-difluoroazetidin-1-yl)phenyl)-2-oxo-2,3-dihydro-1H-benzo[d]imidazol-1-yl)cyclopropyl)benzoic acid]
< 10 | O=C(O)c1cccc(C2(n3c(=O)n(-c4ccc(C(=O)N5CC(O)C5)cc4)c4cc(Cl)ccc43)CC2)c1 [Example 128, 3-(1-(5-chloro-3-(4-(3-hydroxyazetidine-1-carbonyl)phenyl)-2-oxo-2,3-dihydro-1H-benzo[d]imidazol-1-yl)cyclopropyl)benzoic acid]
< 10 | O=C(O)c1cccc(C2(n3c(=O)n(-c4ccc(C(=O)N5CCCCC5)cc4)c4cc(Cl)ccc43)CC2)c1F [Example 68, 3-(1-(5-chloro-2-oxo-3-(4-(piperidine-1-carbonyl)phenyl)-2,3-dihydro-1H-benzo[d]imidazol-1-yl)cyclopropyl)-2-fluorobenzoic acid]
< 10 | O=C(O)c1cccc(C2(n3c(=O)n(-c4ccc(C5CCOCC5)cc4)c4cc(Cl)ccc43)CC2)c1 [Example 99, 3-(1-(5-chloro-2-oxo-3-(4-(tetrahydro-2H-pyran-4-yl)phenyl)-2,3-dihydro-1H-benzo[d]imidazol-1-yl)cyclopropyl)benzoic acid]
